Results on 1 compound are retold here after publication PMC12713097, “ARL3 Enhances ERα Stability via USP10 Deubiquitination to Promote Endocrine Resistance and Drive Mitochondrial Metabolic Reprogramming in HR+ Breast Cancer” (Advanced Science, 2025).

This experiment has as its target ARL3 (Homo sapiens, UniProt P36405). Nature of the experiment: microscale thermophoresis (Monolith NT.[…]). The experiment is classed as binding.

ARL3, sequence (P36405 2-182): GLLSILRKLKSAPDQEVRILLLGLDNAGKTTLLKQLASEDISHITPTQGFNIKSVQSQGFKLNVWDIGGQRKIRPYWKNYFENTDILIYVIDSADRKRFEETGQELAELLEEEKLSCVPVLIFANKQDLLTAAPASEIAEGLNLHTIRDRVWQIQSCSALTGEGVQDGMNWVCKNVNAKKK

For the compound `Cc1c(-c2ccc(N3CCc4cccc(C(=O)Nc5nc6ccccc6s5)c4C3)nc2C(=O)O)cnn1CC12CC3CC(CC(C3)C1)C2` [A-1331852], the Kd was determined as 12 µM.
